Test results as given in US9428519B2, “Acylated derivative of homoharringtonine, preparation method therefor, and application thereof” (HANGZHOU BENSHENG PHARMACEUTICAL CO., LTD., priority 2011, dated 2016).
In brackets after ≈: the same amount, converted by molar mass.

Legend:
Experiment in all cases: MTT growth inhibition of human solid tumor cells, 72 h
Type in all cases: cell-based
PC-3 (prostate cancer) = system: PC-3 (prostate cancer)
In short: (§1)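 Exposure lasts 72 h at 37° C in 5% CO2 after a 24 h pre-culture of 4000 cells per well in DMEM high glucose with 10% FBS. Percent viability from MTT is referenced to compound-free control.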

[1] = system: PANC-1 (pancreatic cancer)
In short: as §1

[2] = system: CNE (nasopharyngeal carcinoma cell); conditions: Homo sapiens, MTT
In short: as §1

## COC(=O)C[C@](O)(CCCC(C)(C)OC(C)=O)C(=O)O[C@@H]1C(OC)=C[C@]23CCCN2CCc2cc4c(cc2[C@H]13)OCO4 [BS-HH-002, 6-acetylhomoharringtonine]
PC-3 (prostate cancer); Homo sapiens, MTT
  IC50: 0.013 µg/mL (≈ 0.0221 µM)
  IC90: > 16 µg/mL
PC-3 (prostate cancer); vs HHT
  anti-PC-3 effect relative to homoharringtonine: more than 6 fold
[1]; Homo sapiens, PANC-1, MTT
  IC50: 0.012 µg/mL (≈ 0.0204 µM)
  IC90: > 16 µg/mL
[1]; vs HHT
  anti-PANC-1 effect relative to homoharringtonine: more than 3 fold
[2]
  IC50: 0.024 µg/mL (≈ 0.0408 µM)
  IC90: > 16 µg/mL
